Reference: PubChem BioAssay (NCI)
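Briefly, cells in 96-well plates were exposed to five compound concentrations for 48 h, and endpoints were estimated by linear interpolation. The concentration for 50% growth inhibition is given as GI50. TGI is the concentration that stops growth completely.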

Key:
Experiment in all cases: NCI-60 cell line screen, 48 h; in the data active = GI50 below about 0.43 µM; inactive = the rest
786-0 renal = tested on: 786-0 renal
A498 renal = tested on: A498 renal
A549 NSCLC = tested on: A549 NSCLC
ACHN renal = tested on: ACHN renal
CAKI-1 renal = tested on: CAKI-1 renal
CCRF-CEM leukemia = tested on: CCRF-CEM leukemia
COLO 205 colon = tested on: COLO 205 colon
DLD-1 colon = tested on: DLD-1 colon
DMS 273 small cell lung = tested on: DMS 273 small cell lung
EKVX NSCLC = tested on: EKVX NSCLC
HCC-2998 colon = tested on: HCC-2998 colon
HCT-116 colon = tested on: HCT-116 colon
HCT-15 colon = tested on: HCT-15 colon
HL-60(TB) leukemia = tested on: HL-60(TB) leukemia
HOP-18 NSCLC = tested on: HOP-18 NSCLC
HOP-62 NSCLC = tested on: HOP-62 NSCLC
HOP-92 NSCLC = tested on: HOP-92 NSCLC
HT29 colon = tested on: HT29 colon
IGROV1 ovarian = tested on: IGROV1 ovarian
K-562 leukemia = tested on: K-562 leukemia
KM12 colon = tested on: KM12 colon
KM20L2 colon = tested on: KM20L2 colon
LOX IMVI melanoma = tested on: LOX IMVI melanoma
LXFL 529 NSCLC = tested on: LXFL 529 NSCLC
M14 melanoma = tested on: M14 melanoma
M19-MEL melanoma = tested on: M19-MEL melanoma
MALME-3M melanoma = tested on: MALME-3M melanoma
MOLT-4 leukemia = tested on: MOLT-4 leukemia
NCI-H226 lung = tested on: NCI-H226 lung
NCI-H23 lung = tested on: NCI-H23 lung
NCI-H460 lung = tested on: NCI-H460 lung
NCI-H522 lung = tested on: NCI-H522 lung
OVCAR-3 ovarian = tested on: OVCAR-3 ovarian
OVCAR-4 ovarian = tested on: OVCAR-4 ovarian
OVCAR-5 ovarian = tested on: OVCAR-5 ovarian
OVCAR-8 ovarian = tested on: OVCAR-8 ovarian
RPMI-8226 leukemia = tested on: RPMI-8226 leukemia
RXF 393 renal = tested on: RXF 393 renal
SF-268 CNS = tested on: SF-268 CNS
SF-295 CNS = tested on: SF-295 CNS
SF-539 CNS = tested on: SF-539 CNS
SK-MEL-2 melanoma = tested on: SK-MEL-2 melanoma
SK-MEL-28 melanoma = tested on: SK-MEL-28 melanoma
SK-MEL-5 melanoma = tested on: SK-MEL-5 melanoma
SK-OV-3 ovarian = tested on: SK-OV-3 ovarian
SN12C renal = tested on: SN12C renal
SNB-19 CNS = tested on: SNB-19 CNS
SNB-75 CNS = tested on: SNB-75 CNS
SW-620 colon = tested on: SW-620 colon
TK-10 renal = tested on: TK-10 renal
U251 CNS = tested on: U251 CNS
UACC-257 melanoma = tested on: UACC-257 melanoma
UACC-62 melanoma = tested on: UACC-62 melanoma
UO-31 renal = tested on: UO-31 renal
XF 498 CNS = tested on: XF 498 CNS

CC(C)[O-].CC(C)[O-].O=C1C=C([O-])C(=O)c2ccccc21.O=C1C=C([O-])C(=O)c2ccccc21.[Ti+4]
> 100 µM: TGI (786-0 renal) | TGI (A498 renal) | TGI (A549 NSCLC) | TGI (ACHN renal) | TGI (CAKI-1 renal) | TGI (CCRF-CEM leukemia) | TGI (COLO 205 colon) | TGI (DLD-1 colon) | TGI (DMS 273 small cell lung) | TGI (HCC-2998 colon) | TGI (HCT-116 colon) | TGI (HCT-15 colon) | TGI (HL-60(TB) leukemia) | TGI (HOP-18 NSCLC) | TGI (HOP-62 NSCLC) | TGI (HOP-92 NSCLC) | TGI (HT29 colon) | TGI (IGROV1 ovarian) | TGI (K-562 leukemia) | TGI (KM12 colon) | TGI (KM20L2 colon) | TGI (LOX IMVI melanoma) | TGI (LXFL 529 NSCLC) | TGI (M14 melanoma) | TGI (M19-MEL melanoma) | TGI (MALME-3M melanoma) | TGI (MOLT-4 leukemia) | TGI (NCI-H226 lung) | TGI (NCI-H460 lung) | TGI (NCI-H522 lung) | TGI (OVCAR-3 ovarian) | TGI (OVCAR-4 ovarian) | TGI (OVCAR-5 ovarian) | TGI (OVCAR-8 ovarian) | TGI (RPMI-8226 leukemia) | TGI (RXF 393 renal) | TGI (SF-268 CNS) | TGI (SF-295 CNS) | TGI (SF-539 CNS) | TGI (SK-MEL-28 melanoma) | TGI (SK-OV-3 ovarian) | TGI (SN12C renal) | TGI (SNB-19 CNS) | TGI (SNB-75 CNS) | TGI (SW-620 colon) | TGI (TK-10 renal) | TGI (U251 CNS) | TGI (UACC-257 melanoma) | TGI (UACC-62 melanoma) | TGI (UO-31 renal) | TGI (XF 498 CNS)
> 71.2 µM: TGI (SK-MEL-2 melanoma)
inactive: GI50 (786-0 renal) > 86.4 µM | GI50 (A498 renal) > 100 µM | GI50 (A549 NSCLC) 47.2 µM | GI50 (ACHN renal) > 85.5 µM | GI50 (CAKI-1 renal) > 91.3 µM | GI50 (CCRF-CEM leukemia) > 73 µM | GI50 (COLO 205 colon) 30 µM | GI50 (DLD-1 colon) > 100 µM | GI50 (DMS 273 small cell lung) 34.9 µM | GI50 (EKVX NSCLC) > 44.8 µM | GI50 (HCC-2998 colon) > 91.7 µM | GI50 (HCT-116 colon) 43.7 µM | GI50 (HCT-15 colon) > 73.4 µM | GI50 (HL-60(TB) leukemia) 17.4 µM | GI50 (HOP-18 NSCLC) > 86.7 µM | GI50 (HOP-62 NSCLC) > 100 µM | GI50 (HOP-92 NSCLC) > 100 µM | GI50 (HT29 colon) 34.9 µM | GI50 (IGROV1 ovarian) > 100 µM | GI50 (K-562 leukemia) > 89.4 µM | GI50 (KM12 colon) > 81.4 µM | GI50 (KM20L2 colon) 44.1 µM | GI50 (LOX IMVI melanoma) 5.21 µM | GI50 (LXFL 529 NSCLC) 80.8 µM | GI50 (M14 melanoma) 17.8 µM | GI50 (M19-MEL melanoma) 4.42 µM | GI50 (MALME-3M melanoma) 14.7 µM | GI50 (MOLT-4 leukemia) > 100 µM | GI50 (NCI-H226 lung) 63.9 µM | GI50 (NCI-H23 lung) 3.94 µM | GI50 (NCI-H460 lung) 15.3 µM | GI50 (NCI-H522 lung) 39.9 µM | GI50 (OVCAR-3 ovarian) > 70.5 µM | GI50 (OVCAR-4 ovarian) > 100 µM | GI50 (OVCAR-5 ovarian) > 100 µM | GI50 (OVCAR-8 ovarian) > 100 µM | GI50 (RPMI-8226 leukemia) 19.1 µM | GI50 (RXF 393 renal) > 85.3 µM | GI50 (SF-268 CNS) > 100 µM | GI50 (SF-295 CNS) 28.1 µM | GI50 (SF-539 CNS) > 100 µM | GI50 (SK-MEL-2 melanoma) 17.2 µM | GI50 (SK-MEL-28 melanoma) > 100 µM | GI50 (SK-MEL-5 melanoma) 6.32 µM | GI50 (SK-OV-3 ovarian) > 100 µM | GI50 (SN12C renal) > 100 µM | GI50 (SNB-19 CNS) > 100 µM | GI50 (SNB-75 CNS) 17.5 µM | GI50 (SW-620 colon) 44.2 µM | GI50 (TK-10 renal) > 100 µM | GI50 (U251 CNS) > 68.8 µM | GI50 (UACC-257 melanoma) 4.97 µM | GI50 (UACC-62 melanoma) 17.6 µM | GI50 (UO-31 renal) > 100 µM | GI50 (XF 498 CNS) > 100 µM
> 91.1 µM: TGI (EKVX NSCLC)
> 79.3 µM: TGI (NCI-H23 lung)
> 66.8 µM: TGI (SK-MEL-5 melanoma)
